Measured values reported in patent US9249139B2, “Indolizinone based derivatives as potential phosphodiesterase 3 (PDE3) inhibitors and a process for the preparation thereof” (COUNCIL OF SCIENTIFIC & INDUSTRIAL RESEARCH, priority 2013, dated 2016).

Target: PDE3 enzyme (Homo sapiens (Human), UniProt Q14432)
Assay: PDE3 inhibition assay, BIOMOL GREEN Quantizyme Assay System
Format: biochemical
Details: PDE3 enzyme from platelets isolated from human blood; cAMP substrate; 1 hour at 37° C.; read at 620 nm
Protocol: PDE3 inhibition assay was performed a BIOMOL GREEN™ Quantizyme Assay System (catalogue No. BML-AK800-0001). The Platelets isolated from human blood were used as a source of PDE3 enzyme. 10 mL blood collected in a vacutainer tube (containing K3 EDTA) and centrifuged at 190×g for 15 min at room temperature. Top layer (platelet rich plasma) collected, centrifuged at 2500g for 5 min at 22° C. (Room temp.) The pellet was washed with 2 ml of 50 mM tris buffer (pH-7.4) containing 1 mM MgCl2 and centrifuged at 2500 g for 5 min. Then 200 μl of assay buffer (from PDE kit, Enzo Life Sciences) was added to the pellet and sonicated at 30 s per ml. Pellet was freeze thawed for three times (−80° C.) in order to rupture the platelet membrane and release the PDE enzyme. Then the cell homogenate was centrifuged at 2500 rpm for 5 min. Supernatant was collected and used as source for PDE3 enzyme. In 96 well plate (Prod. No. BML-KI101), we added supernatant having PDE3 enzyme, PDE3 assay buffer, cAMP substrate, 5′nucleotidase and test or standard compound and incubated for 1 hour at 37° C. The reaction was arrested by the addition 100 μl BIOMOL GREEN reagent incubated in room temp for 20 min. The green color developed was measured at 620 nm
The in vitro Phosphodiestarase (PDE3) inhibitory activity of compounds 1a-p were measured using a BIOMOL GREEN™ Quantizyme Assay System (catalogue No. BML-AK800-0001). The basic principle for this assay is the cleavage of c-AMP or c-GMP into their respective nucleotide by a cyclic nucleotide phosphodiesterase. The nucleotide (AMP or GMP) released is further cleaved into the nucleoside and phosphate by the enzyme 5′-nucleotidase. The extent of phosphate released is directly proportional to the PDE activity. In this screening method, the released phosphate by the enzymatic cleavage is quantified using BIOMOL GREEN reagent in a modified malachite green assay. The resulting green colour with λmax at 620 nm is directly proportional to the released phosphate and then PDE activity.

Sequence of PDE3 enzyme (Q14432 whole entry): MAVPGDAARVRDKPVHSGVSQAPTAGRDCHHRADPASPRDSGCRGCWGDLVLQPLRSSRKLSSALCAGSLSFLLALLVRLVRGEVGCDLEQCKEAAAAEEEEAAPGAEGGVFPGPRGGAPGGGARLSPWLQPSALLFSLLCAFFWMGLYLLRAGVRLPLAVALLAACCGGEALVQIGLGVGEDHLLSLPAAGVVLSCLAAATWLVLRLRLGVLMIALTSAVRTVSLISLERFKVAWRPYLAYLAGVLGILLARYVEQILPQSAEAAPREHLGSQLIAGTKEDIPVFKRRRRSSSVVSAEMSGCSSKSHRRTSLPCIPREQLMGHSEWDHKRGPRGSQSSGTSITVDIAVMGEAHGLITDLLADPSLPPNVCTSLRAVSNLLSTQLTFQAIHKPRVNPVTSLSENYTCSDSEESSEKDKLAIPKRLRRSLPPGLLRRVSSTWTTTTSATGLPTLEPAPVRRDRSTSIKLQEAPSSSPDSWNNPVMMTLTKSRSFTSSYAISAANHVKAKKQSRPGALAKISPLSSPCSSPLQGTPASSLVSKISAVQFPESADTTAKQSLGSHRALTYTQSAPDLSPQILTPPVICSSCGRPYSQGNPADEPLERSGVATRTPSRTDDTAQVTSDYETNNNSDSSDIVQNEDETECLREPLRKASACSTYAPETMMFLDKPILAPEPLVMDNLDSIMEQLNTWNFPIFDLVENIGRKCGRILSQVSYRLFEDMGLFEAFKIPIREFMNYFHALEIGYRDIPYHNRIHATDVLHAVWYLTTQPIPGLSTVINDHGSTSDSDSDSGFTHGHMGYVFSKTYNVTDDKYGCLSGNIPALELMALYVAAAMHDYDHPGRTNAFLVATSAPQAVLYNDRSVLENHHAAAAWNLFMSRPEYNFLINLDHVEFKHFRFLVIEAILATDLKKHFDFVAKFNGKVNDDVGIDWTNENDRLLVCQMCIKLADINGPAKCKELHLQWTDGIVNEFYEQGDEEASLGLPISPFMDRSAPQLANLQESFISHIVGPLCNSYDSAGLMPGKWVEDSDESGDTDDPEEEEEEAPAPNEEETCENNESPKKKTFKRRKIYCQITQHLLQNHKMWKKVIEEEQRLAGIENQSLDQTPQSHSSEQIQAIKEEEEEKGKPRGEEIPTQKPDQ

SMILES	IC50 [µM]
CCOC(=O)c1cc(Cc2ccccc2)c(=O)n2c1CCC2 [Compound 1a, Ethyl 6-benzyl-5-oxo-1,2,3,5-tetrahydro-8-indolizinonecarboxylate]	0.435
CCOC(=O)c1cc(Cc2cccc(F)c2)c(=O)n2c1CCC2 [Compound 1c, Ethyl 6-(3-fluorobenzyl)-5-oxo-1,2,3,5-tetrahydro-8-indolizinonecarboxylate]	0.0135
CCOC(=O)c1cc(Cc2ccc(F)cc2)c(=O)n2c1CCC2 [Compound 1d, Ethyl 6-(4-fluorobenzyl)-5-oxo-1,2,3,5-tetrahydro-8-indolizinonecarboxylate]	1.6
CCOC(=O)c1cc(Cc2ccccc2Cl)c(=O)n2c1CCC2 [Compound 1e, Ethyl 6-(2-chlorobenzyl)-5-oxo-1,2,3,5-tetrahydro-8-indolizinonecarboxylate]	0.129
CCOC(=O)c1cc(Cc2ccc(Cl)cc2)c(=O)n2c1CCC2 [Compound 1g, Ethyl 6-(4-chlorobenzyl)-5-oxo-1,2,3,5-tetrahydro-8-indolizinonecarboxylate]	0.108

The remaining compounds from weak to strong by IC50, led by results:

IC50 [µM]	SMILES
0.577	CCOC(=O)c1cc(Cc2ccc(Cl)cc2Cl)c(=O)n2c1CCC2 [Compound 1h, Ethyl 6-(2,4-dichlorobenzyl)-5-oxo-1,2,3,5-tetrahydro-8-indolizinonecarboxylate]
0.0673	CCOC(=O)c1cc(Cc2ccc(Br)cc2)c(=O)n2c1CCC2 [Compound 1k, Ethyl 6-(4-bromobenzyl)-5-oxo-1,2,3,5-tetrahydro-8-indolizinonecarboxylate]
0.0113	CCOC(=O)c1cc(Cc2cccc(Br)c2)c(=O)n2c1CCC2 [Compound 1j, Ethyl 6-(3-bromobenzyl)-5-oxo-1,2,3,5-tetrahydro-8-indolizinonecarboxylate]
